Where “and” joins values, the source holds several entries; their conditions need not be identical. Identical values can stand only once. Inconclusive results and toxic doses are left out.

In this experiment the test system is CD2F1 mice, intracerebral L1210 leukemia, survival T/C. As to the kind of experiment: NCI In Vivo Anticancer Drug Screen. Data for tumor model L1210 Leukemia (intracerebral) in CD2F1 (CDF1) mice. The settings on record: higher = longer survival. The method, then:
The antitumor activity of compounds was measured in mice bearing transplantable tumors. Survival or tumor size were measured and the results are expressed as the measurement made in the treated group (T) divided by the measurement made in the vehicle treated control group (C). The tumor model used in this assay is L1210 Leukemia (intracerebral) in CD2F1 (CDF1) mice

Where [1] appears, read: endpoint: median survival time, dose: 128.0 mg/kg/injection, schedule: Q01DX005 (ip), vehicle: saline.
[2] abbreviates: endpoint: median survival time, dose: 256.0 mg/kg/injection, schedule: Q01DX005 (ip), vehicle: saline.
Setting [3] is: endpoint: median survival time, dose: 512.0 mg/kg/injection, schedule: Q01DX005 (ip), vehicle: saline.
[4] abbreviates: endpoint: median survival time, dose: 8.0 mg/kg/injection, schedule: Q01DX009 (ip), vehicle: saline with Tween-80.
The mark [5] stands for this setting: endpoint: median survival time, dose: 16.0 mg/kg/injection, schedule: Q01DX009 (ip), vehicle: saline with Tween-80.
Where [6] appears, read: endpoint: median survival time, dose: 32.0 mg/kg/injection, schedule: Q01DX009 (ip), vehicle: saline with Tween-80.
[7] abbreviates: endpoint: median survival time, dose: 64.0 mg/kg/injection, schedule: Q01DX009 (ip), vehicle: saline with Tween-80.
Where [8] appears, read: endpoint: median survival time, dose: 128.0 mg/kg/injection, schedule: Q01DX009 (ip), vehicle: saline with Tween-80.
The mark [9] stands for this setting: endpoint: median survival time, dose: 256.0 mg/kg/injection, schedule: Q01DX009 (ip), vehicle: saline with Tween-80.

`CN(C)/N=N/c1[nH]ncc1C(N)=O`: the T/C reads like this: (endpoint: median survival time, dose: 32.0 mg/kg/injection, schedule: Q01DX005 (ip), vehicle: saline with Tween-80) 112 % of control; (endpoint: median survival time, dose: 128.0 mg/kg/injection, schedule: Q01DX005 (ip), vehicle: saline with Tween-80) 122 % of control; (endpoint: median survival time, dose: 256.0 mg/kg/injection, schedule: Q01DX005 (ip), vehicle: saline with Tween-80) 114 % of control.
Take `O=C1c2c(O)ccc(O)c2C(=O)c2c(NCCNCCO)ccc(NCCNCCO)c21`: the T/C reads like this: (endpoint: median survival time, dose: 0.5 mg/kg/injection, schedule: Q01DX009 (ip), vehicle: saline with Tween-80) 122 % of control and 110 % of control; (endpoint: median survival time, dose: 1.0 mg/kg/injection, schedule: Q01DX009 (ip), vehicle: saline with Tween-80) 120 % of control; (endpoint: median survival time, dose: 2.0 mg/kg/injection, schedule: Q01DX009 (ip), vehicle: saline with Tween-80) 121 % of control; (endpoint: median survival time, dose: 4.0 mg/kg/injection, schedule: Q01DX009 (ip), vehicle: saline with Tween-80) 105 % of control and 106 % of control.
Turning to `Nc1nc2c(c(=O)[nH]1)N(C=O)C(CNc1ccc(C(=O)N[C@@H](CCC(=O)O)C(=O)O)cc1)CN2` (some centres undefined), the T/C runs as follows: under setting [1], 96 % of control and 106 % of control; under setting [2], 95 % of control and 108 % of control; under setting [3], 92 % of control and 96 % of control.
As for `CC1(C)N=C(N)N=C(N)N1c1ccc(OCc2ccc(C(=O)Nc3cccc(S(=O)(=O)F)c3)cc2)c(Cl)c1`, the T/C reads like this: (endpoint: mean survival time, dose: 50.0 mg/kg/injection, schedule: Q04DX003 (ip), vehicle: saline) 111 % of control; (endpoint: mean survival time, dose: 100.0 mg/kg/injection, schedule: Q04DX003 (ip), vehicle: saline) 111 % of control.
With `O=CC(NC(=O)N(CCCl)N=O)C(O)C(O)C(O)CO` (centres undefined), the T/C (endpoint: median survival time, dose: 3.13 mg/kg/injection, schedule: Q01DX001 (ip), vehicle: saline) is 103 % of control; the T/C (endpoint: median survival time, dose: 6.25 mg/kg/injection, schedule: Q01DX001 (ip), vehicle: saline) is 106 % of control; the T/C (endpoint: median survival time, dose: 12.5 mg/kg/injection, schedule: Q01DX001 (ip), vehicle: saline) was 122 % of control; the T/C (endpoint: median survival time, dose: 25.0 mg/kg/injection, schedule: Q01DX001 (ip), vehicle: DMSO) was 152 % of control; the T/C (endpoint: median survival time, dose: 50.0 mg/kg/injection, schedule: Q01DX001 (ip), vehicle: DMSO) was 95 % of control; the T/C (endpoint: median survival time, dose: 50.0 mg/kg/injection, schedule: Q01DX001 (ip), vehicle: saline) was 92 % of control. Where the note is “endpoint: median survival time, dose: 50.0 mg/kg/injection, schedule: Q01DX001 (oral), vehicle: saline”, the T/C was 97 % of control.
Take `Nc1n[nH]c(N)n1`: the T/C is 96 % of control (endpoint: mean survival time, dose: 512.0 mg/kg/injection, schedule: Q12HX018 (ip), vehicle: saline); 107 % of control (endpoint: mean survival time, dose: 1024.0 mg/kg/injection, schedule: Q12HX018 (ip), vehicle: saline); 110 % of control (endpoint: mean survival time, dose: 2048.0 mg/kg/injection, schedule: Q12HX018 (ip), vehicle: saline); 107 % of control and 116 % of control under setting [1]; 108 % of control and 111 % of control under setting [2]; 120 % of control and 115 % of control under setting [3]. For the same molecule, under “endpoint: median survival time, dose: 1024.0 mg/kg/injection, schedule: Q01DX005 (ip), vehicle: saline”, the T/C was 119 % of control.
With `CC(=O)OC1(C)CC(C)C(=O)C(C(O)CC2CC(=O)NC(=O)C2)C1` (centres undefined), the T/C reads like this: (endpoint: mean survival time, dose: 0.04 mg/kg/injection, schedule: Q01DX009 (ip), vehicle: saline) 101 % of control; (endpoint: mean survival time, dose: 0.06 mg/kg/injection, schedule: Q01DX009 (ip), vehicle: saline) 101 % of control; (endpoint: mean survival time, dose: 0.13 mg/kg/injection, schedule: Q01DX009 (ip), vehicle: saline) 108 % of control; (endpoint: mean survival time, dose: 0.25 mg/kg/injection, schedule: Q01DX009 (ip), vehicle: saline) 111 % of control; (endpoint: mean survival time, dose: 0.5 mg/kg/injection, schedule: Q01DX009 (ip), vehicle: saline) 105 % of control.
Regarding `C[C@]12C=CC(=O)C=C1CC[C@@H]1[C@@H]2CC[C@]2(C)OC(=O)CC[C@@H]12`, the T/C by setting is: under setting [4], 95 % of control and 111 % of control; under setting [5], 98 % of control and 102 % of control; under setting [6], 101 % of control and 102 % of control; under setting [7], 93 % of control and 102 % of control; under setting [8], 90 % of control and 98 % of control; under setting [9], 90 % of control and 98 % of control.
For `CCCCCC(=O)O[C@]1(C(C)=O)CC[C@H]2[C@@H]3CCC4=CC(=O)CC[C@]4(C)[C@H]3CC[C@@]21C`, the T/C was 117 % of control under setting [4]; 104 % of control under setting [5]; 114 % of control under setting [6]; 94 % of control under setting [7]; 93 % of control under setting [8]; 94 % of control under setting [9]. In addition, the T/C (endpoint: median survival time, dose: 512.0 mg/kg/injection, schedule: Q01DX009 (ip), vehicle: saline with Tween-80) is 107 % of control.
For `N[C@@H](Cc1ccc(N(CCCl)CCCl)cc1)C(=O)O`, the T/C by setting is: (endpoint: mean survival time, dose: 1.25 mg/kg/injection, schedule: Q01DX009 (ip), vehicle: saline) 116 % of control; (endpoint: mean survival time, dose: 2.5 mg/kg/injection, schedule: Q01DX009 (ip), vehicle: saline) 120 % of control.
As to `C[C@H](CN1CC(=O)NC(=O)C1)N1CC(=O)NC(=O)C1`, the T/C reads like this: (endpoint: mean survival time, dose: 64.0 mg/kg/injection, schedule: Q01DX009 (ip), vehicle: water) 159 % of control; (endpoint: mean survival time, dose: 128.0 mg/kg/injection, schedule: Q01DX009 (ip), vehicle: water) 109 % of control; (endpoint: mean survival time, dose: 256.0 mg/kg/injection, schedule: Q01DX009 (ip), vehicle: water) 90 % of control.
